Source: EPA's ToxRefDB 2

What was measured:
[1] = tested on: dog; settings: Sub-acute repeat dose toxicity, beagle, Oral, Gavage/Intubation, dose end: 28 day, group: systemic
[2] = tested on: primate; settings: Sub-acute repeat dose toxicity, Oral, Gavage/Intubation, dose end: 14 day, group: systemic
[3] = tested on: rat; settings: Sub-acute repeat dose toxicity, wistar, Oral, Gavage/Intubation, dose end: 14 day, group: systemic
[4] = tested on: primate; settings: Sub-acute repeat dose toxicity; Oral; Gavage/Intubation; dose end: 5 day; group: systemic; systemic / clinical chemistry / [other] / [other] + systemic / clinical chemistry / plasma renin activity / plasma renin activity + systemic…
[5] = tested on: rat; settings: Sub-acute repeat dose toxicity, wistar, Oral, Gavage/Intubation, dose end: 28 day, group: systemic
[6] = tested on: rat; settings: Sub-acute repeat dose toxicity, wistar, Oral, Gavage/Intubation, dose end: 14 day, group: systemic; remark: listed apart in the source
[7] = tested on: rabbit; settings: Sub-acute repeat dose toxicity, Oral, Gavage/Intubation, dose end: 13 day
[8] = tested on: primate; settings: Sub-acute repeat dose toxicity, Oral, Gavage/Intubation, dose end: 28 day, group: systemic
[9] = tested on: rat; settings: Sub-acute repeat dose toxicity; wistar; Oral; Gavage/Intubation; dose end: 14 day; group: systemic; systemic / in life observation / clinical signs / abnormal feces + systemic / in life observation / clinical signs / erythema + systemic / …
[10] = tested on: rat; settings: Subchronic oral toxicity in rodents, sprague dawley, Feed, dose end: 13 week, group: systemic
[11] = tested on: dog; settings: Chronic toxicity, beagle, Oral, [Not Specified], dose end: 52 week, group: systemic
[12] = tested on: rat; settings: Combined chronic toxicity/carcinogenicity, Oral, Feed, dose end: 104 week, group: systemic
[13] = tested on: dog; settings: Subchronic oral toxicity in nonrodent, beagle, Feed, dose end: 13 week, group: systemic
[14] = tested on: mouse; settings: Carcinogenicity; cd1; Oral; Feed; dose end: 78 week; group: systemic; systemic / organ weight / spleen / nos
[15] = tested on: rat; settings: Multigenerational reproductive toxicity study, wistar, Oral, Feed, dose end: 2 generation
[16] = tested on: mouse; settings: Subchronic oral toxicity in rodents, cd1, Feed, dose end: 90 day, group: systemic, systemic / in life observation / body weight / body weight + systemic / in life observation / body weight / body weight gain
[17] = tested on: rat; settings: Combined chronic toxicity/carcinogenicity, other, Oral, Feed, dose end: 24 month, group: systemic
[18] = tested on: rat; settings: Subchronic oral toxicity in rodents, sprague dawley, Feed, dose end: 3 month, group: systemic, systemic / organ weight / liver / relative to body weight + systemic / pathology microscopic / liver / hypertrophy + systemic / pathology …
[19] = tested on: dog; settings: Chronic toxicity, beagle, Oral, Feed, dose end: 52 week, group: systemic
[20] = tested on: mouse; settings: Subchronic oral toxicity in rodents, cd1, Feed, dose end: 13 week, group: systemic, systemic / in life observation / body weight / body weight gain
[21] = tested on: mouse; settings: Carcinogenicity, cd1, Oral, Feed, dose end: 18 month, group: systemic
[22] = tested on: dog; settings: Subchronic oral toxicity in nonrodent, beagle, Feed, dose end: 13 week, group: systemic, systemic / in life observation / body weight / body weight gain
[23] = tested on: rat; settings: Subchronic oral toxicity in rodents, sprague dawley, Gavage/Intubation, dose end: 90 day, group: systemic
[24] = systemic / clinical chemistry / alanine aminotransferase (alt/sgpt) / alanine aminotransferase (alt/sgpt) + systemic / clinical chemistry / …
[25] = systemic / in life observation / body weight / body weight + systemic / pathology microscopic / kidney / atrophy + systemic / pathology …
[26] = systemic / clinical chemistry / [other] / [other] + systemic / clinical chemistry / creatinine / creatinine + systemic / in life observation…
[27] = systemic / in life observation / body weight / body weight gain + systemic / in life observation / clinical signs / abnormal feces + …
[28] = systemic / in life observation / clinical signs / abnormal feces + systemic / in life observation / clinical signs / salivation + systemic…
[29] = systemic / in life observation / clinical signs / nasal discharge + systemic / in life observation / clinical signs / urine staining - …
[30] = systemic / in life observation / clinical signs / abnormal feces + systemic / in life observation / clinical signs / body cold to touch + …
[31] = systemic / in life observation / clinical signs / body cold to touch + systemic / in life observation / clinical signs / dehydration + …
[32] = group: maternal, reproductive / reproductive performance / aborted / aborted + reproductive / reproductive performance / resorptions / resorptions
[33] = group: systemic, systemic / in life observation / body weight / body weight gain
[34] = group: systemic, systemic / in life observation / body weight / body weight gain + systemic / in life observation / body weight / body weight + systemic / in…
[35] = systemic / in life observation / clinical signs / abnormal feces + systemic / in life observation / clinical signs / dialated pupils + …
[36] = systemic / pathology microscopic / adrenal gland / vacuolization + systemic / clinical chemistry / cholesterol / cholesterol + systemic / …
[37] = systemic / organ weight / thymus / nos
[38] = systemic / organ weight / thymus / nos + systemic / hematology / platelet / platelet + systemic / organ weight / testes / nos
[39] = systemic / in life observation / body weight / body weight + systemic / in life observation / body weight / body weight gain
[40] = systemic / in life observation / body weight / body weight + systemic / in life observation / body weight / body weight gain + systemic / …
[41] = group: offspring, systemic / in life observation / clinical signs / grip strength
[42] = group: offspring, systemic / in life observation / clinical signs / grip strength + systemic / in life observation / body weight / offspring (pup) weight + …
[43] = group: parental, systemic / in life observation / body weight / body weight gain + systemic / in life observation / food consumption / food consumption + …
[44] = group: reproductive, reproductive / reproductive performance / estrous cycle / length
[45] = systemic / clinical chemistry / gamma glutamyl transferase (ggt) / gamma glutamyl transferase (ggt) + systemic / clinical chemistry / …
[46] = systemic / hematology / anemia / anemia - hemolytic + systemic / hematology / methemoglobin / methemoglobin + systemic / hematology / …
[47] = systemic / hematology / lymphocyte / lymphocyte + systemic / organ weight / kidney / nos + systemic / organ weight / testes / nos + systemic…
[48] = systemic / organ weight / testes / nos
[49] = systemic / clinical chemistry / globulins / globulins + systemic / clinical chemistry / protein / protein + systemic / hematology / …
[50] = systemic / in life observation / body weight / body weight + systemic / in life observation / food consumption / food consumption

Cc1cc(SC2=C(O)C[C@@](CCc3ccc(N)cc3)(C(C)C)OC2=O)c(C(C)(C)C)cc1CO [CI-1029]
LOAEL [1, 24]: > 500 mg/kg/day
NOAEL [1, 24]: ≥ 500 mg/kg/day
LEL [1, 25]: 100 mg/kg/day
NEL [1, 25]: < 100 mg/kg/day
LOAEL [2, 26]: > 1000 mg/kg/day
NOAEL [2, 26]: ≥ 1000 mg/kg/day
LEL [2, 27]: 100 mg/kg/day
NEL [2, 27]: < 100 mg/kg/day
LOAEL [3, 28]: > 1000 mg/kg/day
NEL [3, 28]: 250 mg/kg/day
NOAEL [3, 28]: ≥ 1000 mg/kg/day
LEL ([3]; systemic / in life observation / clinical signs / urine staining - perineum): 500 mg/kg/day
LEL [4]: 750 mg/kg/day
LOAEL [4]: > 750 mg/kg/day
NEL [4]: < 750 mg/kg/day
NOAEL [4]: ≥ 750 mg/kg/day
LOAEL [5, 29]: > 1000 mg/kg/day
NEL [5, 29]: 100 mg/kg/day
NOAEL [5, 29]: ≥ 1000 mg/kg/day
LEL ([5]; systemic / in life observation / clinical signs / urine staining - perineum + systemic / in life observation / body weight / body weight …): 500 mg/kg/day
LOAEL [6, 30]: > 5000 mg/kg/day
NOAEL [6, 30]: ≥ 5000 mg/kg/day
LEL [6, 31]: 500 mg/kg/day
NEL [6, 31]: < 500 mg/kg/day
LEL [7, 32]: 250 mg/kg/day
LOAEL [7, 32]: > 500 mg/kg/day
NEL [7, 32]: 100 mg/kg/day
NOAEL [7, 32]: ≥ 500 mg/kg/day
LEL [7, 33]: 50 mg/kg/day
NEL [7, 33]: < 50 mg/kg/day
LOAEL [7, 34]: > 500 mg/kg/day
NOAEL [7, 34]: ≥ 500 mg/kg/day
LEL ([8]; systemic / in life observation / body weight / body weight + systemic / in life observation / clinical signs / abnormal feces + systemic / …): 500 mg/kg/day
LOAEL [8, 35]: > 750 mg/kg/day
NOAEL [8, 35]: ≥ 750 mg/kg/day
LEL [9]: 2500 mg/kg/day
LOAEL [9]: > 5000 mg/kg/day
NEL [9]: 1000 mg/kg/day
NOAEL [9]: ≥ 5000 mg/kg/day

CNC(=N[N+](=O)[O-])NCC1CCOC1 (stereo unspecified) [Dinotefuran]
LOAEL ([10]; systemic / pathology microscopic / adrenal gland / vacuolization): 336 mg/kg/day
NEL [10, 36]: 34 mg/kg/day
NOAEL [10, 36]: 34 mg/kg/day
LEL ([10]; systemic / pathology microscopic / adrenal gland / vacuolization + systemic / organ weight / liver / relative to body weight): 336 mg/kg/day
LOAEL [11, 37]: 20 mg/kg/day
NOAEL [11, 37]: < 20 mg/kg/day
LEL [11, 38]: 20 mg/kg/day
NEL [11, 38]: < 20 mg/kg/day
NEL ([12]; systemic / organ weight / uterus / relative to brain weight + systemic / organ weight / brain / relative to body weight + systemic / organ …): 1330 mg/kg/day
LOAEL ([12]; systemic / pathology microscopic / kidney / ulcer + systemic / pathology microscopic / kidney / dilatation): 991 mg/kg/day
NOAEL ([12]; systemic / pathology microscopic / kidney / ulcer + systemic / pathology microscopic / kidney / dilatation + systemic / pathology …): 99.7 mg/kg/day
LOAEL [13, 39]: 58 mg/kg/day
NOAEL [13, 39]: < 58 mg/kg/day
LEL [13, 40]: 58 mg/kg/day
NEL [13, 40]: < 58 mg/kg/day
LEL [14]: 3 mg/kg/day
LOAEL [14]: 3 mg/kg/day
NEL [14]: < 3 mg/kg/day
NOAEL [14]: < 3 mg/kg/day
NEL [15, 41]: 269 mg/kg/day
NOAEL [15, 41]: 269 mg/kg/day
LEL [15, 42]: 935 mg/kg/day
LOAEL [15, 42]: 935 mg/kg/day
LEL [15, 43]: 822 mg/kg/day
LOAEL [15, 43]: 822 mg/kg/day
NEL [15, 43]: 241 mg/kg/day
NOAEL [15, 43]: 241 mg/kg/day
LEL [15, 44]: 907 mg/kg/day
LOAEL [15, 44]: 907 mg/kg/day
NEL [15, 44]: 268 mg/kg/day
NOAEL [15, 44]: 268 mg/kg/day
LEL [16]: 10600 mg/kg/day
LOAEL [16]: 10600 mg/kg/day
NEL [16]: 4440 mg/kg/day
NOAEL [16]: 4440 mg/kg/day

COc1cccc(C(=O)NN(C(=O)c2cc(C)cc(C)c2)C(C)(C)C)c1C [Methoxyfenozide]
LEL [17, 45]: 411 mg/kg/day
NEL [17, 45]: 10.2 mg/kg/day
LOAEL ([17]; systemic / in life observation / mortality / mortality + systemic / organ weight / liver / absolute + systemic / organ weight / liver / …): 1040 mg/kg/day
LEL [18]: 353 mg/kg/day
LOAEL [18]: 353 mg/kg/day
NEL [18]: 69.3 mg/kg/day
NOAEL [18]: 69.3 mg/kg/day
LOAEL [19, 46]: 1150 mg/kg/day
NEL [19, 46]: 9.8 mg/kg/day
NOAEL [19, 46]: 106 mg/kg/day
LEL ([19]; systemic / hematology / platelet / platelet + systemic / hematology / erythrocyte (rbc) count differential / erythrocyte (rbc)): 106 mg/kg/day
LEL [20]: 1150 mg/kg/day
LOAEL [20]: 1150 mg/kg/day
NEL [20]: 428 mg/kg/day
NOAEL [20]: 428 mg/kg/day
LOAEL [21, 47]: > 1020 mg/kg/day
NOAEL [21, 47]: ≥ 1020 mg/kg/day
LEL [21, 48]: 10 mg/kg/day
NEL [21, 48]: < 10 mg/kg/day
LEL [22]: 0.6 mg/kg/day
LOAEL [22]: > 198 mg/kg/day
NEL [22]: < 0.6 mg/kg/day
NOAEL [22]: ≥ 198 mg/kg/day

O=C(O)C(F)(F)C(F)(F)C(F)(F)C(F)(F)C(F)(F)F [PFHxA]
LOAEL [23, 49]: > 200 mg/kg/day
NOAEL [23, 49]: ≥ 200 mg/kg/day
LEL [23, 50]: 10 mg/kg/day
NEL [23, 50]: < 10 mg/kg/day
